Data on 14 compounds can be found in article PMC11904715, “Discovery of Novel Pyrrolidine-Based Chalcones as Dual Inhibitors of α-Amylase and α-Glucosidase: Synthesis, Molecular Docking, ADMET Profiles, and Pharmacological Screening” (ACS Omega, 2025).

As a reminder, the IC50 is the concentration that gives 50% inhibition.

Data set [1] concerns nonsmall lung cancer (A549) cells. In words: Cytotoxic activity, MTT cell viability assay, A549. It is filed as cell-based. The following applies: Homo sapiens, A549, 24 h. As to the method: (§1) In this research, the nonsmall lung cancer (A549) and bronchial epithelial normal (BEAS-2B) cells were used for cytotoxicity experiments. All of the cells were cultured in Dulbecco’s Modified Eagle Medium (Gibco, USA) cell medium containing 10% fetal calf serum (FBS; Gibco, USA) and 1% penicillin/streptomycin (Gibco, USA) in an incubator at 37 °C and 5% CO2.[49],[50]
(§2) In a 96-well cell culture plate, cells were seeded at a density of 6 × 10^4 cells/mL and observed to be cultured for 24 h. The cells must have 70% confluence before chemical exposure. After 70% confluency incubation, the cells were treated with different concentrations of compounds for 24 h. All chemicals were dissolved in DMSO. […] The amount of DMSO contained in the chemical at the highest concentration was used as a negative control.
(§3) Cell viability was determined by 3-[4,5-dimethylthiazol-2-yl]-2,5-diphenyltetrazolium bromide (MTT) assay. This method is specifically used to evaluate live cells. The succinate dehydrogenase system of active mitochondria reduces the tetrazolium salt MTT to formazan.[51] For the MTT assay, MTT solution […] was added into the cells (200 μL/well) and incubated for 1 h at 37 °C. Absorbance was measured at 570 nm using an Epoch microplate spectrophotometer (BioTek Instruments, Winooska, VT).[52]
A general note: Tetrazolium dyes change colour on reduction, which living cells bring about.

A short description of data set [2]: Cytotoxic activity, MTT cell viability assay, BEAS-2B. The data set is classed as cell-based. The following applies: human, BEAS-2B normal bronchial epithelial cells. As to the method: as §1, §2, §3
In data set [3] the test system is α-glucosidase. Description: α-glucosidase inhibitory activity, spectrophotometric p-nitrophenyl-α-D-glucopyranoside method. It is filed as biochemical. To be noted: for IC50: mean ± SEM of three parallel measurements, concentration range 50–100–200–400 μM, read-out: antidiabetic inhibition activity IC50 α-lucosidase. As to the method: Specifically, 50 μL of phosphate buffer (10 mM, pH 6.9), 25 μL of p-nitrophenyl-α-D-glucopyranoside in phosphate buffer (10 mM, pH 6.9), 10 μL of sample solution, and 25 μL of α-glucosidase (0.1 U/mL) in phosphate buffer (10 mM, pH 6.0) were combined in a 96-well microplate. After 20 min of incubation at 37 °C, 90 μL of Na2CO3 (100 mM) was added to each well to halt the enzymatic reaction. The absorbance was measured at 400 nm by using a 96-well microplate reader.
(§4) All biological activity data were taken in three parallel measurements for four different concentrations of each synthesis sample. The results of the biological activity analyses are presented as the IC50 values.

In data set [4] the test system is bronchial epithelial normal (BEAS-2B) cells. Description: Cytotoxic activity, MTT cell viability assay, BEAS-2B. The data set is classed as cell-based. To be noted: at the determined IC50 values. As to the method:
as §1, §2, §3

Data set [5] concerns the target α-amylase. Description: α-amylase inhibitory activity, spectrophotometric starch/Lugol method. The data set is classed as biochemical. The following applies: mean ± SEM of three parallel measurements; concentration range 50–100–200–400 μM; read-out: antidiabetic inhibition activity IC50 α-amylase. As to the method: Briefly, 25 μL of the sample solution at various concentrations was mixed with 50 μL of an α-amylase solution (0.1 U/mL) in a phosphate buffer (20 mM, pH 6.9, prepared with 6 mM NaCl) in a 96-well microplate. This mixture was preincubated at 37 °C for 10 min. Following the preincubation, 50 μL of a starch solution (0.05%) was added, and the reaction mixture was incubated for another 10 min at 37 °C. The reaction was then terminated by adding 25 μL of HCl (0.1 M), followed by the addition of 100 μL of Lugol’s solution for monitoring.
as §4

The target in data set [6] is alpha-amylase. Further details: method as in PMID 34064448, PMID 32525781, PMID 33272713, PMID 35832461, PMID 28495082. The following applies: Figure 1 design strategy; cited from earlier work.

As for `O=C(/C=C/c1cccc(F)c1)c1ccc(N2CCCC2)cc1` [Compound 3, (E)-3-(3-fluorophenyl)-1-(4-(pyrrolidin-1-yl)phenyl)prop-2-en-1-one], in data set [1], the 50% inhibitory concentration (IC50) is more than 100 µM. This compound gave a concentration for half-maximal inhibition (IC50) at 24 h in data set [2] of more than 100 µM. Also, the “α-glucosidase inhibitory effect compared with acarbose” value in data set [3] is recorded as “better inhibitory effect”.

On to `O=C(/C=C/c1cccc(OC(F)(F)F)c1)c1ccc(N2CCCC2)cc1` [Compound 8, (E)-1-(4-(pyrrolidin-1-yl)phenyl)-3-(3-(trifluoromethoxy)phenyl)prop-2-en-1-one], for which the IC50 worked out at 60 µM in data set [1] and 147.5 ± 0.9 µM in data set [3]. Besides, the “toxic effect on healthy BEAS-2B cells” value in data set [4] is listed as “no toxic effects”. Further, the IC50 at 24 h in data set [2] is more than 100 µM.

With `O=C(/C=C/c1ccc(F)c(C(F)(F)F)c1)c1ccc(N2CCCC2)cc1` [Compound 13, (E)-3-(4-fluoro-3-(trifluoromethyl)phenyl)-1-(4-(pyrrolidin-1-yl)phenyl)prop-2-en-1-one], the half-maximal inhibitory concentration (IC50) in data set [1] is more than 100 µM; in data set [3], 261.5 ± 1.69 µM; in data set [5], 83.8 ± 0.01 µM. Moreover, the IC50 at 24 h in data set [2] was more than 100 µM.

Regarding `O=C(/C=C/c1ccc(C(F)(F)F)cc1)c1ccc(N2CCCC2)cc1` [Compound 7, (E)-1-(4-(pyrrolidin-1-yl)phenyl)-3-(4-(trifluoromethyl)phenyl)prop-2-en-1-one], the IC50 in data set [1] was more than 100 µM; in data set [3], 46.5 ± 2.16 µM; in data set [5], 38.2 ± 0.83 µM. Further, the IC50 at 24 h in data set [2] was more than 100 µM. Besides, the “α-glucosidase inhibitory effect compared with acarbose” value in data set [3] is listed as “better inhibitory effect”.

On to `O=C(/C=C/c1ccccc1)c1ccc(N2CCCC2)cc1` [Compound 1, (E)-3-Phenyl-1-(4-(pyrrolidin-1-yl)phenyl)prop-2-en-1-one], for which the IC50 in data set [1] was more than 100 µM; in data set [3] it was 50.2 ± 2.32 µM. The compound also had an IC50 at 24 h in data set [2] of more than 100 µM. The “α-glucosidase inhibitory effect compared with acarbose” value in data set [3] is on record as “better inhibitory effect”.

As to `O=C(/C=C/c1ccc(F)cc1)c1ccc(N2CCCC2)cc1` [Compound 4, (E)-3-(4-fluorophenyl)-1-(4-(pyrrolidin-1-yl)phenyl)prop-2-en-1-one], the 50% inhibitory concentration (IC50) was more than 100 µM in data set [1], 58.9 ± 3.26 µM in data set [3] and 30.63 ± 0.25 µM in data set [5]. Besides, the IC50 at 24 h in data set [2] was more than 100 µM. In addition, the “α-glucosidase inhibitory effect compared with acarbose” value in data set [3] is given as “better inhibitory effect”.

Regarding `O=C(/C=C/c1ccccc1F)c1ccc(N2CCCC2)cc1` [Compound 2, (E)-3-(2-fluorophenyl)-1-(4-(pyrrolidin-1-yl)phenyl)prop-2-en-1-one], the values for the IC50 in data set [1], in data set [3] and in data set [5] were more than 100 µM, 189 ± 1.94 µM and 51.96 ± 0.12 µM, respectively. Besides, in data set [2], the IC50 at 24 h is more than 100 µM.

As to `O=C(/C=C/c1ccc(OC(F)(F)F)cc1)c1ccc(N2CCCC2)cc1` [Compound 9, (E)-1-(4-(pyrrolidin-1-yl)phenyl)-3-(4-(trifluoromethoxy)phenyl)prop-2-en-1-one], the IC50 was more than 100 µM in data set [1], 61.3 ± 2.48 µM in data set [3] and 39.97 ± 0.26 µM in data set [5]. In data set [2], the IC50 at 24 h was more than 100 µM. In data set [3], the “α-glucosidase inhibitory effect compared with acarbose” value was “better inhibitory effect”.

Regarding `O=C(/C=C/c1cccc(C(F)(F)F)c1F)c1ccc(N2CCCC2)cc1` [Compound 11, (E)-3-(2-fluoro-3-(trifluoromethyl)phenyl)-1-(4-(pyrrolidin-1-yl)phenyl)prop-2-en-1-one], the results for the IC50 in data set [1] and in data set [3] were more than 100 µM and 131 ± 3.02 µM, respectively. Besides, the IC50 at 24 h in data set [2] was more than 100 µM.

Consider `O=C(/C=C/c1cccc(C(F)(F)F)c1)c1ccc(N2CCCC2)cc1` [Compound 6, (E)-1-(4-(pyrrolidin-1-yl)phenyl)-3-(3-(trifluoromethyl)phenyl)prop-2-en-1-one], for which the IC50 in data set [1] is more than 100 µM; in data set [3] it was 54.1 ± 2.87 µM; in data set [5], 83.78 ± 0.38 µM. The IC50 at 24 h in data set [2] is more than 100 µM. Also, in data set [3], the “α-glucosidase inhibitory effect compared with acarbose” value is listed as “better inhibitory effect”.

For `O=C(/C=C/c1ccccc1C(F)(F)F)c1ccc(N2CCCC2)cc1` [Compound 5, (E)-1-(4-(pyrrolidin-1-yl)phenyl)-3-(2-(trifluoromethyl)phenyl)prop-2-en-1-one], the figures for the IC50 in data set [1], in data set [3] and in data set [5] were 82.2 µM, 173 ± 3.45 µM and 91.71 ± 0.28 µM, respectively. In addition, the “toxic effect on healthy BEAS-2B cells” value in data set [4] is listed as “no toxic effects”. In data set [2], half-maximal inhibition (IC50 at 24 h) was put at 97.7 µM.

Take `O=C(/C=C/c1ccc(C(F)(F)F)cc1F)c1ccc(N2CCCC2)cc1` [Compound 12, (E)-3-(2-fluoro-4-(trifluoromethyl)phenyl)-1-(4-(pyrrolidin-1-yl)phenyl)prop-2-en-1-one]: the figures for the IC50 in data set [1], in data set [3] and in data set [5] were more than 100 µM, 81.8 ± 0.85 µM and 80.11 ± 0.49 µM, respectively. This compound also came in with an IC50 at 24 h in data set [2] of more than 100 µM. Besides, the “α-glucosidase inhibitory effect compared with acarbose” value in data set [3] was “better inhibitory effect”.

For `O=C(/C=C/c1cc(C(F)(F)F)cc(C(F)(F)F)c1)c1ccc(N2CCCC2)cc1` [Compound 10, (E)-3-(3,5-bis(trifluoromethyl)phenyl)-1-(4-(pyrrolidin-1-yl)phenyl)prop-2-en-1-one], the IC50 in data set [1] is more than 100 µM; in data set [3], 44.2 ± 2.42 µM; in data set [5], 39.68 ± 0.27 µM. For the same compound, the half-inhibitory concentration (IC50) at 24 h in data set [2] was more than 100 µM. Besides, the “α-glucosidase inhibitory effect compared with acarbose” value in data set [3] is “better inhibitory effect”.

`O=C(/C=C/c1ccccc1)c1ccccc1` [trans-chalcone]: in data set [6], the IC50 is 96.4 µM.
